From patent US10004732B2 (Novartis AG, priority 2014, dated 2018)
Counter-ions that a name gives are not always drawn.

Columns and labels:
PI 3-kinase alpha [1] = biological target: T1, PI 3-kinase alpha (Homo sapiens, UniProt P42336); experiment: Kinase Glo Luminescent Kinase Assay (Kglo), assay A; type: biochemical; details: read-out: Assay A PI3Kα IC50
Target sequence in this assay (P42336 whole entry): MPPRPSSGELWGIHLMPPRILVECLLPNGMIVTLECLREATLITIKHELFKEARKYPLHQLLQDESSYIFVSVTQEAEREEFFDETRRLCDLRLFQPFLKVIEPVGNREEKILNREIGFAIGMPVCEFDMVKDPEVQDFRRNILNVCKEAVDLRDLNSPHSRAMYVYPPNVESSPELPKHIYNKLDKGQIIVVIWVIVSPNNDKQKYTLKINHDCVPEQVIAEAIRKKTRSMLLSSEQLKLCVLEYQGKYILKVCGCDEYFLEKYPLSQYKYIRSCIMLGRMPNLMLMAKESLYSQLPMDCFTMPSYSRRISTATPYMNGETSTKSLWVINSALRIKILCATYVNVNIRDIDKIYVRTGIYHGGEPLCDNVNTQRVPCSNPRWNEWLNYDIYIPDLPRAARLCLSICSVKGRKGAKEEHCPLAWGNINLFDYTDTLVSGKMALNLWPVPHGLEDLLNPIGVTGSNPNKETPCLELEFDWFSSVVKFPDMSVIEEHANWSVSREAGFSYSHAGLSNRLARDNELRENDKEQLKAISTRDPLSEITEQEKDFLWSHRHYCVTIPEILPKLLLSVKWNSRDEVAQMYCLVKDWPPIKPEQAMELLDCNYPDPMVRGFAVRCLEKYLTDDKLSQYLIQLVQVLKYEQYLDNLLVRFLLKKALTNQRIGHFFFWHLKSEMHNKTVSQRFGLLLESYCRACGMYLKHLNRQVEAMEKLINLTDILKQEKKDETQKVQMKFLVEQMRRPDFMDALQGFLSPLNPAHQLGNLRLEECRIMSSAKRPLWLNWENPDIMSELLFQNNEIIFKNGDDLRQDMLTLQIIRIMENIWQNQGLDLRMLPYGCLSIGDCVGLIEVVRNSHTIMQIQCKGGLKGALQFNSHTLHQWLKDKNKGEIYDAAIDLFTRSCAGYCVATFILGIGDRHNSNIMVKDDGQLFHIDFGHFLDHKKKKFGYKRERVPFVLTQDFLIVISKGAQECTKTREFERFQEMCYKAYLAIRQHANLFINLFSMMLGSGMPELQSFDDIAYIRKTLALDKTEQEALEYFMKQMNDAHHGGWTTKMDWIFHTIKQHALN

PI 3-kinase beta [2] = biological target: T2, PI 3-kinase beta (Homo sapiens, UniProt P42338); experiment: Kinase Glo Luminescent Kinase Assay (Kglo), assay B; type: biochemical; details: read-out: Assay B PI3Kβ IC50
Target sequence in this assay (P42338 whole entry): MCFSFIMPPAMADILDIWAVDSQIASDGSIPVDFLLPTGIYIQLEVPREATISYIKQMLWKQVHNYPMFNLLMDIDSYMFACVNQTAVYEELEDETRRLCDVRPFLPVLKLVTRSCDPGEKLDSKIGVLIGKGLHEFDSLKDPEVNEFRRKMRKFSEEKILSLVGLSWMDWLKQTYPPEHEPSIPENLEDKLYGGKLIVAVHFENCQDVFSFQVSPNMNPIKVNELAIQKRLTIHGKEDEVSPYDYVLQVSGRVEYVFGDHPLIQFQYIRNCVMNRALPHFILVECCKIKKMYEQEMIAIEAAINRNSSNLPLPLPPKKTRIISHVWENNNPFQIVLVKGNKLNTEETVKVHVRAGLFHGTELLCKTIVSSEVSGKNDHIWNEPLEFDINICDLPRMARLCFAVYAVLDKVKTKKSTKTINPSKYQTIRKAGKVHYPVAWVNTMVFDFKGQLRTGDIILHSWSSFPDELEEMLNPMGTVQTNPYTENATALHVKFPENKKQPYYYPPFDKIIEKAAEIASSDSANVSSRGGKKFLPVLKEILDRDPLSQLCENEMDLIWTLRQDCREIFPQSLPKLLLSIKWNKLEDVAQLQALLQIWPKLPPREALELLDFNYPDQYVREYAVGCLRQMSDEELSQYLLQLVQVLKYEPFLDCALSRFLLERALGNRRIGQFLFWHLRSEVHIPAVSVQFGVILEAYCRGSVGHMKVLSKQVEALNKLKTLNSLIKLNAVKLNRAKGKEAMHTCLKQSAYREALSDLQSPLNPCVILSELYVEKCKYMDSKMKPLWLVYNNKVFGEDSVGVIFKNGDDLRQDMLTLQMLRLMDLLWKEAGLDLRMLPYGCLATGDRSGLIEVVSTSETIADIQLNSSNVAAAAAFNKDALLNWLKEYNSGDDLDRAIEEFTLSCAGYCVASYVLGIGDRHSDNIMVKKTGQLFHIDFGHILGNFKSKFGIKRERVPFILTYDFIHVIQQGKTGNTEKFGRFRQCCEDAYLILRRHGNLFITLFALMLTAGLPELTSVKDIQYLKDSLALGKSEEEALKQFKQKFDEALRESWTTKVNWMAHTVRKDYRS
Target sequence in this assay (P27986 461-568 partner): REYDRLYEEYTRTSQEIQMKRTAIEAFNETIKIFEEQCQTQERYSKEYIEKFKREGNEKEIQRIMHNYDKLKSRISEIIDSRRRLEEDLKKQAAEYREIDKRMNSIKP

Vps34 = Vps34 (Homo sapiens, UniProt Q8NEB9); experiment: Kinase Glo Luminescent Kinase Assay (Kglo), assay C; type: biochemical; details: read-out: Assay C VPS34 IC50
PI 4-kinase beta = PI 4-kinase beta (Homo sapiens, UniProt Q9UBF8); experiment: Kinase Glo Luminescent Kinase Assay (Kglo), assay D; type: biochemical; details: read-out: Assay D PI4Kβ IC50
PI 3-kinase gamma [3] = biological target: T3, PI 3-kinase gamma (Homo sapiens, UniProt P48736); experiment: TR-FRET Adapta assay, assay E; type: biochemical; details: read-out: Assay E PI3Kγ IC50
mTOR = mTOR (Homo sapiens, UniProt P42345); experiment: Lanthascreen kinase binding assay, assay G; details: read-out: Assay G mTOR IC50
Method: Lanthascreen™ Kinase Binding Assay for mTOR (G)
Binding of an inhibitor to the kinase competes for binding with the tracer, resulting in a loss of FRET.
50 nL of compound dilutions were dispensed onto white 384-well small volume polystyrene plate.

PI 3-kinase alpha [4] = biological target: T1, PI 3-kinase alpha; experiment: Cellular assay H1, p-Akt (S473) in Rat-1 cells, Surefire format; type: cell-based; details: non-asterisked data: version H1 (Surefire format), Rat-1 cells; read-out: Assay H PI3Kα IC50
Target sequence in this assay (P42336 whole entry): as the sequence (P42336 whole entry) above
Target sequence in this assay (Q63787 whole entry partner): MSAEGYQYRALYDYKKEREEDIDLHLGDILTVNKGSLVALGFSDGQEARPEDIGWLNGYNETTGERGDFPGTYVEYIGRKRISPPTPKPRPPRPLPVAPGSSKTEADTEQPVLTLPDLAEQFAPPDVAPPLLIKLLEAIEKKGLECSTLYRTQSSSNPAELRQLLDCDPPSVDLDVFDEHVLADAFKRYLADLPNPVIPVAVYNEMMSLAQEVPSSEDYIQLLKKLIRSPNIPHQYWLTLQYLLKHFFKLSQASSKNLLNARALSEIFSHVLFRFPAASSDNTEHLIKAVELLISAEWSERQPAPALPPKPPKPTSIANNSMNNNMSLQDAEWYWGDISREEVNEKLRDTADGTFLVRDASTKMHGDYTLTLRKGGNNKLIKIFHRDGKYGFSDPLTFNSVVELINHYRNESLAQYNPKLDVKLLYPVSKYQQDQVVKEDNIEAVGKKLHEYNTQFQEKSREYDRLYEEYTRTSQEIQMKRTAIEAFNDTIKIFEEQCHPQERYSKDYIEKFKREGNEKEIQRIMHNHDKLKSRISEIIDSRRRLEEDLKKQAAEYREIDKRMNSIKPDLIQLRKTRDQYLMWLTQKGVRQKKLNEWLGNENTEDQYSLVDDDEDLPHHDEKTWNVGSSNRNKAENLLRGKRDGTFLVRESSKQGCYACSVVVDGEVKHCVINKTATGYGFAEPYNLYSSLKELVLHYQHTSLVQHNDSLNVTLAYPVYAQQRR

PI 3-kinase beta [5] = biological target: T2, PI 3-kinase beta; experiment: Cellular assay I1, p-Akt (S473) in Rat-1 cells, Surefire format; type: cell-based; details: non-asterisked data: version I1 (Surefire format), Rat-1 cells; read-out: Assay I PI3Kβ IC50
Target sequence in this assay (P42338 whole entry): as the sequence (P42338 whole entry) above
Target sequence in this assay (Q63787 whole entry partner): as the sequence (Q63787 whole entry partner) above

PI 3-kinase delta [6] = biological target: T4, PI 3-kinase delta (Homo sapiens, UniProt O00329); experiment: Cellular assay J1, p-Akt (S473) in Rat-1 cells, Surefire format; type: cell-based; details: non-asterisked data: version J1 (Surefire format), Rat-1 cells; read-out: Assay J PI3Kδ IC50
PI 3-kinase gamma [7] = biological target: T3, PI 3-kinase gamma; experiment: Cellular U937 AKT assay K1 (MSD); type: cell-based; details: U937 cells, K1 format; read-out: Assay K1 PI3Kγ IC50
[8] = test system: IL-8-induced neutrophil shape change in human whole blood; experiment: Whole blood neutrophil shape change assay (L); type: cell-based; details: Homo sapiens, Neutrophil, IL-8, human whole blood, read-out: Assay L WBSC IC50
PI 3-kinase delta [9] = biological target: T4, PI 3-kinase delta; experiment: TR-FRET Adapta assay, assay F; details: read-out: Assay F PI3Kδ IC50
[10] = Microsomal clearance assay (M); details: intrinsic clearance in rat liver microsomes
Method: The experiments were performed in 96-well glass plates at 37° C. on an automated Tecan EVO platform. Test compounds at a concentration of 10 mM in pure DMSO were diluted 1:1000 in water to 10 μM. […] Reactions were initiated by the addition of 150 μL of a cofactor solution containing 2 mM NADPH.

Chain of Vps34 (Q8NEB9 whole entry, species assumed): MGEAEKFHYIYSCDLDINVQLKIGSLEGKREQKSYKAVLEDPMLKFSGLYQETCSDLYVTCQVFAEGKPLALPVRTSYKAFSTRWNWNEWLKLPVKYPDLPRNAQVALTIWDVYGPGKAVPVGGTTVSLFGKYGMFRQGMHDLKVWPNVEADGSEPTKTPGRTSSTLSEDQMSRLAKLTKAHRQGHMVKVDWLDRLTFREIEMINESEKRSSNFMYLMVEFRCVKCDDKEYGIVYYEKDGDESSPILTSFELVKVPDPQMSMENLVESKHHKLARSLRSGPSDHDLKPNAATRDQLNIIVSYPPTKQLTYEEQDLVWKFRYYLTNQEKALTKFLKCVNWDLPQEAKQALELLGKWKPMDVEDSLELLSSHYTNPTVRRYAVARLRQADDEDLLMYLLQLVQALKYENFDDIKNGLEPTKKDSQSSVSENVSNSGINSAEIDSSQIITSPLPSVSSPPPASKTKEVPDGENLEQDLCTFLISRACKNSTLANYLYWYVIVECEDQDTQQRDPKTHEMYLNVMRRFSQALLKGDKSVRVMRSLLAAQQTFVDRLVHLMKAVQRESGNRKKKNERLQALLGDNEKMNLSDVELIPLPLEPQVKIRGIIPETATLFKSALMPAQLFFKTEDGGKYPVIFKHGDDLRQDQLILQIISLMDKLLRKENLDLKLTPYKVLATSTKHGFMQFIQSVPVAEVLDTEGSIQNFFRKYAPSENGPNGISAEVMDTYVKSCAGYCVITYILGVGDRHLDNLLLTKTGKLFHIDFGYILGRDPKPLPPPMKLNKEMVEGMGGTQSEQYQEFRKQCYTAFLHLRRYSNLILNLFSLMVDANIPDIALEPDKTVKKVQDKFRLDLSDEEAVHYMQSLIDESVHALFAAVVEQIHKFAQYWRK
T3 sequence (P48736 whole entry): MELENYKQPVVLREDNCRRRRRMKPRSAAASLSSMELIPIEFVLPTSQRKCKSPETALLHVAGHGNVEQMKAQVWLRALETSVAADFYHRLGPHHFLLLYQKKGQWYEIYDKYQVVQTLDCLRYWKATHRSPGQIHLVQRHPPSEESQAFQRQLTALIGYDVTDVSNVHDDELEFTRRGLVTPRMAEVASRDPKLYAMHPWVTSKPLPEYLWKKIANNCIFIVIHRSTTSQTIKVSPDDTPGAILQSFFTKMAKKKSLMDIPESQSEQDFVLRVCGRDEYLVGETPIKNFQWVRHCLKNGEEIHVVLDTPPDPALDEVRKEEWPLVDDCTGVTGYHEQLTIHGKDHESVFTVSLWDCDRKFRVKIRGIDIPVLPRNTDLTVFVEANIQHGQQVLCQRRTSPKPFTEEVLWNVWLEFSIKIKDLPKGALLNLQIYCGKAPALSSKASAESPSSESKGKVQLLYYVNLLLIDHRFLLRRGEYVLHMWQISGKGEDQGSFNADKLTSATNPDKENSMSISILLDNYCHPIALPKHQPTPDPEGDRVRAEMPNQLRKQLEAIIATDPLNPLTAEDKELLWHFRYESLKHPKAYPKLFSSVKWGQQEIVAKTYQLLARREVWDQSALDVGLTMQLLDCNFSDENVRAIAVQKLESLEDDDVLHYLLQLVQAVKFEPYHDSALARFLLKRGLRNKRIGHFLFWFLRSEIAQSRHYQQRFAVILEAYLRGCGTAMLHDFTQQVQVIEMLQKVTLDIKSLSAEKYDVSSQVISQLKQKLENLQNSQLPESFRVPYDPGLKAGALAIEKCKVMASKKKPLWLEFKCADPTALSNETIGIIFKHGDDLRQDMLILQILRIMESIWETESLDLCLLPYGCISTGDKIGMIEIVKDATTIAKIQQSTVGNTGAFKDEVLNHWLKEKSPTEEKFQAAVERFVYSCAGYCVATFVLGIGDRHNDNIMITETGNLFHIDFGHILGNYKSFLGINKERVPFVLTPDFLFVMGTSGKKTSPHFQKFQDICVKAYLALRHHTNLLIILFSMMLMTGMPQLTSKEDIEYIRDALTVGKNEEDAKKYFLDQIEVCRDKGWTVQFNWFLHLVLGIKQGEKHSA

IC50 (PI 3-kinase alpha [1]) [µM] | IC50 (PI 3-kinase beta [2]) [µM] | IC50 (Vps34) [µM] | IC50 (PI 4-kinase beta) [µM] | IC50 (PI 3-kinase gamma [3]) [µM] | IC50 (mTOR) [µM] | IC50 (PI 3-kinase alpha [4]) [µM] | IC50 (PI 3-kinase beta [5]) [µM] | IC50 (PI 3-kinase delta [6]) [µM] | IC50 (PI 3-kinase gamma [7]) [µM] | IC50 [8] [µM] | IC50 (PI 3-kinase delta [9]) [µM] | Assay M RLM CI(int) [10] [µL/min/mg] | Compound
0.15 | 2.83 | > 9.1 | 7.01 | 0.012 | 5.11 | 1.63 | 4.52 | 1.2 | 0.065 | 0.735 | 0.18 | 62 | Cc1ccc(S(=O)(=O)NCCC(C)(C)O)cc1-c1cnc(N)c(-c2cnn(CC(F)(F)F)c2)n1 [Example 130, 3-(5-Amino-6-(1-(2,2,2-trifluoroethyl)-1H-pyrazol-4-yl)pyrazin-2-yl)-N-(3-hydroxy-3-methylbutyl)-4-methylbenzenesulfonamide]
0.6 | 5.88 | > 9.1 | > 9.1 | 0.046 | > 9.1 | 1.04 | 8.33 | 1.17 | 0.394 | 1.11 | 0.14 | – | Cc1noc(-c2nc(-c3cc(S(=O)(=O)NCCC(C)(C)O)ccc3C)cnc2N)n1 [Example 3, 3-[5-Amino-6-(3-methyl-[1,2,4]oxadiazol-5-yl)-pyrazin-2-yl]-N-(3-hydroxy-3-methyl-butyl)-4-methyl-benzenesulfonamide]
1.3 | – | > 9.1 | > 9.1 | 0.015 | – | 9.36 | > 10 | 7.42 | 0.504 | 0.803 | 1.01 | <3.4 | Cc1nnc(-c2nc(-c3cc(S(=O)(=O)N[C@H]4CC[C@H](O)CC4)ccc3C)cnc2N)o1 [Example 1, Trans-3-[5-Amino-6-(5-methyl-[1,3,4]oxadiazol-2-yl)-pyrazin-2-yl]-N-(4-hydroxy-cyclohexyl)-4-methyl-benzenesulfonamide]
0.4 | 5.78 | > 9.1 | 4.05 | 0.031 | 8.74 | 1.28 | 4.1 | 1.2 | 0.065 | 2.09 | 0.29 | – | CCCn1cc(-c2nc(-c3cc(S(=O)(=O)NCCC(C)(C)O)ccc3C)cnc2N)cn1 [Example 119.25]
0.12 | 2.25 | > 10 | 3 | – | 1.83 | 0.13 | > 10 | 0.83 | 0.036 | 0.97 | 0.53 | 40 | Cc1ccc(S(=O)(=O)NOC2CCOC2)cc1-c1cnc(N)c(-n2cncn2)n1 (stereo not drawn) [Example 112.5, 3-(5-Amino-6-(1H-1,2,4-triazol-1-yl)pyrazin-2-yl)-4-methyl-N-((tetrahydrofuran-3-yl)oxy)benzenesulfonamide]
0.18 | > 9.1 | > 9.1 | 2.26 | 0.017 | > 9.1 | 1.28 | 6.05 | 0.35 | 0.074 | 0.449 | 0.05 | – | Cc1ccc(S(=O)(=O)NCCC(C)(C)O)cc1-c1cnc(N)c(-c2cnn(Cc3ccccc3)c2)n1 [Example 132, 3-(5-Amino-6-(1-benzyl-1H-pyrazol-4-yl)pyrazin-2-yl)-N-(3-hydroxy-3-methylbutyl)-4-methylbenzenesulfonamide hydrochloride]
0.47 | 2.48 | 7.49 | 7.97 | 0.056 | 4.51 | > 10 | – | 7.8 | 0.091 | 0.83 | 0.24 | 13 | Cc1ccc(S(=O)(=O)N[C@H]2CC[C@@H](O)CC2)cc1-c1cnc(N)c(-c2cnn(C)c2)n1 [Example 75, 3-(5-Amino-6-(1-methyl-1H-pyrazol-4-yl)pyrazin-2-yl)-N-((1s,4s)-4-hydroxycyclohexyl)-4-methylbenzenesulfonamide]
0.54 | 8.39 | > 9.1 | > 9.1 | 0.016 | 8.3 | 1.08 | 7.96 | 0.97 | 0.102 | 0.565 | 0.16 | – | CCc1noc(-c2nc(-c3cc(S(=O)(=O)N[C@H]4CC[C@H](O)CC4)ccc3C)cnc2N)n1 [Example 139, Trans-3-[5-Amino-6-(3-ethyl-[1,2,4]oxadiazol-5-yl)-pyrazin-2-yl]-N-(4-hydroxy-cyclohexyl)-4-methyl-benzene sulfonamide]
0.39 | > 9.1 | > 9.1 | > 9.1 | 0.01 | 6.45 | 3.01 | 6.46 | 1.01 | 0.106 | 0.447 | 0.09 | – | Cc1ccc(S(=O)(=O)N[C@H]2CC[C@H](O)CC2)cc1-c1cnc(N)c(-c2nc(C(C)C)no2)n1 [Example 23, 3-[5-Amino-6-(3-isopropyl-[1,2,4]oxadiazol-5-yl)-pyrazin-2-yl]-N-(4-hydroxy-cyclohexyl)-4-methyl-benzene sulfonamide]
0.49 | 2.93 | 3.1 | 5.85 | 0.019 | > 9.1 | 8.58 | – | 2.46 | 0.073 | 0.385 | 0.1 | 14 | Cc1ccc(S(=O)(=O)N[C@H]2CC[C@H](O)CC2)cc1-c1cnc(N)c(-c2cnn(C)c2)n1 [Example 58, Trans-3-(5-Amino-6-(1-methyl-1H-pyrazol-4-yl)pyrazin-2-yl)-N-(-4-hydroxycyclohexyl)-4-methylbenzenesulfonamide]
0.14 | 2.65 | > 9.1 | > 9.1 | 0.041 | > 9.1 | 4.7 | > 10 | 3.41 | 0.117 | 0.2 | 0.24 | – | Cc1ccc(S(=O)(=O)NCCC(C)(C)O)cc1-c1cnc(N)c(-c2cn(C)nc2C)n1 [Example 12, 3-(5-Amino-6-(1,3-dimethyl-1H-pyrazol-4-yl)pyrazin-2-yl)-N-(3-hydroxy-3-methylbutyl)-4-methyl benzenesulfonamide]
0.82 | – | > 9.1 | > 9.1 | 0.003 | > 9.1 | 3.18 | > 10 | 1.07 | 0.147 | 0.687 | 0.39 | 25 | Cc1noc(-c2nc(-c3cc(S(=O)(=O)N[C@H]4CC[C@H](O)CC4)ccc3C)cnc2N)n1 [Example 2, Trans-3-[5-Amino-6-(3-methyl-[1,2,4]oxadiazol-5-yl)-pyrazin-2-yl]-N-(4-hydroxy-cyclohexyl)-4-methyl-benzenesulfonamide]
0.44 | > 9.1 | > 9.1 | > 9.1 | 0.012 | > 9.1 | 0.99 | > 10 | 1.12 | 0.124 | 1.3 | 0.13 | – | CCc1noc(-c2nc(-c3cc(S(=O)(=O)NCCC(C)(C)O)ccc3C)cnc2N)n1 [Example 136, 3-(5-Amino-6-(3-ethyl-1,2,4-oxadiazol-5-yl)pyrazin-2-yl)-N-(3-hydroxy-3-methylbutyl)-4-methylbenzenesulfonamide]
0.33 | 3.93 | > 9.1 | 7.85 | 0.068 | 6.5 | 2.97 | – | 3.25 | 0.163 | 0.626 | 0.42 | 44 | Cc1cn(-c2nc(-c3cc(S(=O)(=O)NCCC(C)(C)O)ccc3C)cnc2N)cn1 [Example 63, 3-(5-Amino-6-(4-methyl-1H-imidazol-1-yl)pyrazin-2-yl)-N-(3-hydroxy-3-methylbutyl)-4-methylbenzenesulfonamide]
